# From US20030170221A1, “STREPTOMYCES MEGASPORUS SD5, PROCESS FOR THE ISOLATION THEREOF, NOVEL FIBRINOLYTIC ENZYME PREPARED THEREFROM, PROCESS FOR THE PRODUCTION OF SAID ENZYME AND METHOD OF TREATMENT OF THROMBOLYTIC DISORDERS USING SAID ENZYME” (MAHARASHTRA ASSOC. FOR THE CULTIVATION OF SCIENCE, priority 2001, published 2003)
# Read-outs that look alike come from different tables or passages of the source. Square brackets hold non-standard residues; d marks the D form. Peptide text beside a SMILES is read from it. * marks the point of attachment. Sta = CC(C)C[C@H](N)[C@@H](O)CC(=O)O; Isovaleryl = CC(C)CC(=O)*
# Experiments:
# [1] = system: Streptomyces megasporus SD5; assay: Antibiotic sensitivity of the strain; type: cell-based; conditions: concentration of 50 μg ml^−1
# [2] = system: fibrinolytic enzyme produced by S. megasporus SD5; assay: Effect of protease inhibitors on fibrinolytic activity of the crude enzyme (FIG. 5); type: biochemical, Streptomyces megasporus SD5
# Excerpt: (§1) 1.Control, 2—Antipain—3, Bestatin, —4, Chymostatin, —5. E-64, 6—Leupeptin, 7—Pepstatin, 8 Phosphoramidon, 9—pefabloc, 10—EDTA, 11—EDTA+Ca^++, 12—Aprotinin, 13—Trypsin inhibitor, 14—β-mercaptoethanol, 15—TPCK, 16—1, 10 pheuanthroline, 17—PMSF.
# To determine the class to which the enzyme belonged the effect of different protease inhibitors were studied in detail.
# actinokinase = assay: Effects of inhibitors and metal ions on activity of the purified enzyme; type: biochemical, Streptomyces megasporus SD5
# Description: (§2) Different protease inhibitors were separately dissolved in distilled water/methanol/dimethyl sulphoxide as per manufacturers protocol, so that final concentration of each inhibitor was 1 mM. The enzyme (50 μl) was mixed with same amount (50 μl) of inhibitor and incubate at ambient temperature for 30 min. The residual activity was measured at 55° C. as above using universal protease substrate and compared with that of the control without any inhibitor and the inhibition was determined as percentage taking control as 100% positive.
# [3] = system: fibrinolytic enzyme (actinokinase) produced by Streptomyces megasporus SD5, ~35 kDa, wild type; assay: Effects of various inhibitors on fibrinolytic activity of the enzyme (FIG. 5); type: biochemical; conditions: result in words
# Description: as §1
# The fibrinolytic (thrombolytic) activity was assayed on solid and liquid media (Harverkate & Trass 1974, Lottenberg et al. 1981). The reaction mixture (1 ml) comprised of chromogenic substrates, such as benzoyl-β-alanyl-glycyl-arginine-ρ nitroanilide (20 μmol 1^−1) in 10 mM sodium phosphate buffer, pH 8.0 and incubated at 55° C. for 30 min after addition of 1 ml, enzyme solution containing 0.5 μg protein ml^−1, cooled to room temperature and the liberation of ρ-nitroanilide was measured by increased absorbance recorded at 405 nm using a UV-VIS Spectrophotometer (DU 8B, Beckman, Sweden). One unit of the enzyme was defined as the amount of enzyme that catalysed the formation of 1 ng of ρ-nitroanilide min^−1. The caseinolytic activity was determined by Dunn (1989) in terms of μmol tyrosine min^−1. Protein was determined using Folin Ciocalteau phenol reagent. All the results of growth and assays are the means of three separate experiments.
# To determine the class to which the enzyme belonged the effect of different protease inhibitors were studied in detail. As the fibrinolytic enzyme could be used as a therapeutic agent for different types of thrombosis so in vitro clot lysis was studied with both natural and synthetic clots.
# [4] = system: actinokinase, fibrinolytic enzyme from Streptomyces megasporus SD5, 35 kDa serine protease, wild type; assay: Michaelis constant with Chromozyme U as substrate, Lineweaver-Burk plot; type: biochemical; conditions: in absence of plasminogen
# Description: The thrombolytic activity was measured on standard fibrin plate using the method of Haverkate-Trass (1974) as mentioned previously and compared with available thrombolytic enzyme, urokinase, Each sample (20 μl) was put on the fibrin clot layer and incubated at both 55° C. and 37° C. for 8 h. The zone of clear areas for standard urokinase and the enzyme of the invention was measured and thrombolytic activities of both enzymes were expressed in terms of Plough units. Amidolytic activity was determined using chromogenic substrates and one unit of activity is defined as the amount of enzyme, which released […] of pNA min^−1. Amydolytic activity in liquid medium was determined using the method by Lottenberg et al (1981). Caseinolytic activity was assayed by the procedure described by Pokorny et al (1979). Protein concentration was estimated by a modification of the Lowry's method (1951).
# Substrate specificity of the enzyme was assessed at 405 nm by using various synthetic peptide substrates, (20 μM) tagged with ρ-nitranilide acetate and resorufin, in the reaction mixture. The Michaelis constant (Km) was determined using Chromozyme U as substrate using line weaver Burk plot method (Jayaraman 1985).
# [5] = system: actinokinase, fibrinolytic enzyme from Streptomyces megasporus SD5, 35 kDa serine protease, wild type; conditions: 1 mM inhibitor, ambient temperature 30 min; residual activity at 55° C., universal protease substrate
# Description: as §2
# [6] = in vivo
# [7] = Table III, available enzymes; cited from earlier work
# fibrin = conditions: prior art; cited from earlier work
# [8] = Pharmacological properties of thrombolytic agents in acute myocardial infarctions; conditions: for Efficacy (<4 h): acute myocardial infarctions
# [9] = cited from earlier work
# [10] = reportedly; cited from earlier work
# [11] = inhibitor 1 mM, purified enzyme, universal protease substrate, 55° C.
Compound,"effect of inhibitor on fibrinolytic activity of the enzyme ([2]; crude enzyme, FIG. 5)",effect of inhibitor on enzymatic activity (actinokinase; [11]),further results
CCC[C@@H]1C[C@@H](C(=O)N[C@@H]([C@H]2O[C@H](SC)[C@H](O)[C@@H](O)[C@H]2O)[C@@H](C)O)N(C)C1 [lincomycin],,,inhibition of the microorganism [1]: inhibited
CC(C)C[C@H](NC(=O)[C@@H](O)[C@H](N)Cc1ccccc1)C(=O)O [Bestatin],strongly repressed,highly repressed,
"Cl.NCCc1ccc(S(=O)(=O)F)cc1 [Pefabloc, pefabloc]",strongly repressed,highly repressed,
Cc1ccc(S(=O)(=O)N[C@@H](Cc2ccccc2)C(=O)CCl)cc1 [TPCK],moderately sensitive,moderately sensitive,
OCCS [β-mercaptoethanol],,Insignificant inhibition,
"c1cnc2c(c1)ccc1cccnc12 [1,10 phenanthroline]",No change,No change in activity,effect of inhibitor on fibrinolytic activity [3]: No change in the activity
CC(C)C[C@H](NP(=O)(O)O[C@@H]1O[C@@H](C)[C@H](O)[C@@H](O)[C@H]1O)C(=O)N[C@@H](Cc1c[nH]c2ccccc12)C(=O)O [Phosphoramidon],No change,No change in activity,
O=S(=O)(F)Cc1ccccc1 [PMSF],strongly repressed,highly repressed,
Aprotinin,strongly repressed,highly repressed,
CC(C)C[C@H](NC(=O)[C@@H](NC(=O)N[C@@H](Cc1ccccc1)C(=O)O)[C@@H]1CCN=C(N)N1)C(=O)N[C@H](C=O)Cc1ccccc1 [Chymostatin],strongly repressed,highly repressed,
"N=C(N)NCCC[C@H](NC(=O)CNC(=O)CCNC(=O)c1ccccc1)C(=O)Nc1ccc([N+](=O)[O-])cc1 [chromozyme U, Benzoyl-β-ala-gly-arg-4-ρNA] (HELM PEPTIDE1{[O=C(c1ccccc1)[*:2]].[bAla].G.R.[O=[N+]([O-])c1ccc(N[*:1])cc1]}$$$$V2.0)",,,Km [4]: 2.2 µM
CC(C)C[C@H](NP(=O)(O)O[C@@H]1O[C@@H](C)[C@H](O)[C@@H](O)[C@H]1O)C(=O)N[C@@H](Cc1c[nH]c2ccccc12)C(=O)O [phosphoramidin],,,effect of inhibitor on fibrinolytic activity [3]: No change in the activity
O=C(O)CN(CCN(CC(=O)O)CC(=O)O)CC(=O)O [EDTA],,,effect of inhibitor on fibrinolytic activity of the enzyme [2]: inhibitory effect; effect of inhibitor on fibrinolytic activity [3]: inhibitory effect; effect of inhibitor on enzymatic activity (actinokinase): inhibitory effect; effect of inhibitor on enzymatic activity [5]: inhibitory effect
Urokinase,,,Half life [6]: 16 min; Optimum Temperature [7]: 37 °C; Optimum pH [7]: 7.5; affinity for fibrin (fibrin): do not show any affinity; Efficacy (<4 h) [8]: 65
CC(=O)N[C@@H](CC(C)C)C(=O)N[C@@H](CC(C)C)C(=O)N[C@H](C=O)CCCNC(=N)N [Leupeptin],moderately sensitive,moderately sensitive,
CC(C)CC(=O)N[C@H](C(=O)N[C@H](C(=O)N[C@@H](CC(C)C)[C@@H](O)CC(=O)N[C@@H](C)C(=O)N[C@@H](CC(C)C)[C@@H](O)CC(=O)O)C(C)C)C(C)C [Pepstatin] (Isovaleryl-VV[Sta]A[Sta]-OH),,Insignificant inhibition,
CC(C)C[C@H](NC(=O)[C@H]1O[C@@H]1C(=O)O)C(=O)NCCCCN=C(N)N [E-64],,Insignificant inhibition,
T-PA: tissue plasmiogen activators,,,"Efficacy (<4 h) ([9]; acute myocardial infarctions, data from the literature): 70; Half life ([9]; in vivo): 5 min"
C=C(NC(=O)C(=C)NC(=O)c1csc(C2=N[C@@H]3c4csc(n4)[C@H]4NC(=O)c5csc(n5)[C@H]([C@](C)(O)[C@@H](C)O)NC(=O)[C@H]5CSC(=N5)/C(=C/C)NC(=O)[C@H]([C@@H](C)O)NC(=O)c5csc(n5)[C@]3(CC2)NC(=O)[C@H](C)NC(=O)C(=C)NC(=O)[C@H](C)NC(=O)[C@H]([C@@H](C)CC)N[C@@H]2C=Cc3c([C@H](C)O)cc(nc3[C@H]2O)C(=O)O[C@@H]4C)n1)C(N)=O [thiostrepton],,,inhibition of the microorganism [1]: inhibited
Streptokinase: prior art plasminogen activator,,,failure rate as thrombolytic agent [10]: ≤ 25%; affinity for fibrin (fibrin): do not show any affinity; Efficacy (<4 h) [8]: 65; Adverse effects ([8]; in vivo): Haemorragic; Half life ([8]; in vivo): 23 min
